Experimental findings from patent US20130310384A1, “Sulfonamide-Containing Compounds” (THE BRIGHAM AND WOMEN'S HOSPITAL, INC., priority 2010, published 2013) are described below.

The test system of series [1] is Human Aβ38, Aβ40 and Aβ42 levels. The experiment in a line: Acute in vivo efficacy study in hAPPSL transgenic mice (Aβ levels by immunosorbent assay). To be noted: 6-month-old female hAPPSL Tg mice, oral b.i.d. 50 and 100 mg/kg, 7 consecutive days. Here is the method:
(§1) A preliminary acute efficacy study in 6-month-old female hAPPSL transgenic (Tg) mice (Rockenstein, E., Mallory, M., Mante, M., Sisk, A., and Masliah, E. (2001) J Neurosci Res 66, 573-582) was completed on the compound of Example 1. Mice were treated orally (b.i.d.) with two doses, 50 mg/kg (n=4) and 100 mg/kg (n=4) for 7 consecutive days. […] Human Aβ38, Aβ40 and Aβ42 levels were determined in the cortex, hippocampus, and cerebral spinal fluid (CSF) by an immunosorbent assay.

Series [2] in a line: Tolerability in the acute in vivo study (7 consecutive days, oral b.i.d.).
Source text: [VIII] Embodiments can include any one or more of the following advantages. […] Selective inhibition of the cleavage of APP relative to that of the Notch receptor is believed to minimize certain unwanted side effects, such as lymphopoiesis and intestinal cell differentiation. […] This is an indication that there could be a minimization of side effects with these types of compounds
as §1

The mark [3] stands for this setting: hAPPSL Tg mice, oral b.i.d. 50 and 100 mg/kg, 7 consecutive days.

For `CC[C@@H](c1ccccc1)N(Cc1ccc(C(=O)O)cc1)S(=O)(=O)c1ccc(Cl)cc1` [Example 1, (S)-4-((4-Chloro-N-(1-phenylpropyl)phenylsulfonamido)methyl)benzoic acid], the “Reduction of Aβ40 in the hippocampus” value in series [1] (p<0.01) is listed as “Statistically significant reductions”. For the same molecule, the “Reduction of Aβ38 in the hippocampus” value in series [1] (p<0.05) is reported as “Statistically significant reductions”. In addition, the “Toxicity in in vivo efficacy study” value in series [2] (100 mg/kg b.i.d. for 7 consecutive days, transgenic and nontransgenic mice) is “no toxicity was observed”. For the same molecule, in series [2] (setting [3]), the “Adverse side effects on any organ compared to vehicle controls” value is “no obvious adverse side effects” and the Mortality during treatment entry is given as “No mice died”.

The molecule `CC[C@@H](c1ccccc1)N(Cc1ccc(C(=O)N2CCC[C@@H]2CO)cc1)S(=O)(=O)c1ccc(Cl)cc1` [Example 104, 4-Chloro-N-(4-((R)-2-(hydroxymethyl)pyrrolidine-1-carbonyl)benzyl)-N-((S)-1-phenylpropyl)benzenesulfonamide] returned a melting point of 120 to 121 °C.

Molecule `CC[C@@H](c1ccccc1)N(Cc1ccc(C(=O)OC)cc1)S(=O)(=O)c1ccc(Cl)c(Cl)c1` [Example 114, (S)-Methyl 4-((3,4-dichloro-N-(1-phenylpropyl)phenylsulfonamido)methyl)benzoate] showed a melting point of 98 to 99 °C.

In turn, `CC[C@@H](c1ccccc1)N(Cc1ccc(C(=O)OC)cc1)S(=O)(=O)c1ccc(F)c(F)c1` [Example 115, (S)-Methyl 4-((3,4-difluoro-N-(1-phenylpropyl)phenylsulfonamido)methyl)benzoate] displayed a melting point of 103 to 105 °C.

For the molecule `C[C@H](O)[C@H](CO)N(Cc1ccc(C(=O)O)cc1)S(=O)(=O)c1ccc(Cl)cc1` [Example 118, 4-((4-Chloro-N-((2S,3S)-1,3-dihydroxybutan-2-yl)phenylsulfonamido)methyl)benzoic acid], the melting point fell in the range of 182 to 184 °C.

With `CC[C@@H](c1ccc(C(F)(F)F)cc1)N(Cc1ccc(C(=O)OC)cc1)S(=O)(=O)c1ccc(Cl)cc1` [Example 122, (S)-Methyl 4-((4-chloro-N-(1-(4-(trifluoromethyl)phenyl)propyl)phenylsulfonamido)methyl)benzoate], the melting point is 123 to 125 °C.

In turn, `CC[C@H](c1ccc(C(F)(F)F)cc1)N(Cc1ccc(C(=O)OC)cc1)S(=O)(=O)c1ccc(Cl)cc1` [Example 123, (R)-Methyl 4-((4-chloro-N-(1-(4-(trifluoromethyl)phenyl)propyl)phenylsulfonamido)methyl)benzoate] displayed a melting point of 120 to 121 °C.

As for `CC[C@@H](c1ccccc1)N(Cc1ccc(C(=O)OC)c(F)c1F)S(=O)(=O)c1ccc(Cl)cc1` [Example 124, (S)-Methyl 4-((4-chloro-N-(1-phenylpropyl)phenylsulfonamido)methyl)-2,3-difluorobenzoate], the melting point is 87 to 89 °C.

The molecule `CC[C@@H](c1ccc(C(F)(F)F)cc1)N(Cc1ccc(C(=O)O)cc1)S(=O)(=O)c1ccc(Cl)cc1` [Example 125, (S)-4-((4-Chloro-N-(1-(4-(trifluoromethyl)phenyl)propyl)phenylsulfonamido)methyl)benzoic acid] registered a melting point of 101 to 103 °C.

Regarding `CC[C@H](c1ccc(C(F)(F)F)cc1)N(Cc1ccc(C(=O)O)cc1)S(=O)(=O)c1ccc(Cl)cc1` [Example 126, (R)-4-((4-Chloro-N-(1-(4-(trifluoromethyl)phenyl)propyl)phenylsulfonamido)methyl)benzoic acid], the melting point was 105 to 107 °C.

`CC[C@@H](c1ccccc1)N(Cc1ccc(C(=O)O)c(F)c1F)S(=O)(=O)c1ccc(Cl)cc1` [Example 127, (S)-4-((4-Chloro-N-(1-phenylpropyl)phenylsulfonamido)methyl)-2,3-difluorobenzoic acid] gave a melting point of 127 to 129 °C.

In the case of `C[C@H](O)[C@H](CO)N(Cc1ccc(C#N)cc1F)S(=O)(=O)c1ccc(Cl)cc1` [Example 131, 4-Chloro-N-(4-cyano-2-fluorobenzyl)-N-((2S,3S)-1,3-dihydroxybutan-2-yl)-benzenesulfonamide], the melting point was 112 to 114 °C.

The molecule `C[C@H](O)[C@H](CO)N(Cc1ccc(C#N)cc1)S(=O)(=O)c1ccc(Cl)cc1` [Example 132, 4-Chloro-N-(4-cyanobenzyl)-N-((2S,3S)-1,3-dihydroxybutan-2-yl)-benzene-sulfonamide] displayed a melting point of 124 to 126 °C.

As to `COC(=O)c1cc(CN([C@@H](CO)c2ccccc2)S(=O)(=O)c2ccc(Cl)cc2)ccc1OC` [Example 133, (R)-Methyl 5-((4-chloro-N-(2-hydroxy-1-phenylethyl)phenylsulfonamido)methyl)-2-methoxybenzoate], the melting point lay in the range of 60 to 62 °C.

`COc1ccc(CN([C@@H](CO)c2ccccc2)S(=O)(=O)c2ccc(Cl)cc2)cc1C(=O)O` [Example 134, (R)-5-((4-Chloro-N-(2-hydroxy-1-phenylethyl)phenylsulfonamido)methyl)-2-methoxybenzoic acid] gave a melting point of 79 to 80 °C.

Molecule `C[C@@H](c1ccc(Cl)cc1)N(Cc1ccc(C(=O)O)cc1)S(=O)(=O)c1ccc(Cl)cc1` [Example 141, (S)-4-((4-Chloro-N-(1-(4-chlorophenyl)ethyl)phenylsulfonamido)methyl)benzoic acid] returned a melting point of 163 to 165 °C.

Take `COC(=O)c1ccc(CN([C@@H](C)c2ccc(Cl)cc2)S(=O)(=O)c2ccc(Cl)cc2)cc1` [Example 141, (S)-Methyl 4-((4-chloro-N-(1-(4-chlorophenyl)ethyl)phenylsulfonamido)methyl)benzoate]: the melting point fell in the range of 67 to 69 °C.
